Experimental data from ChEMBL document CHEMBL1201862, “PubChem BioAssay data set” (2004).
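1) Cells in 96-well plates. 2) Compound, 48 h, 5 concentrations. 3) Linear interpolation between surrounding doses. 4) Unreached endpoint = highest concentration. GI50 is the concentration that inhibits growth by half.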 Active and inactive are the calls of the source. No stated cut-off is given here; in the data, active = GI50 up to about 1.1 µM and inactive = higher.

Assays:
Assay in all cases: NCI anticancer screen, dose series, 48 h
[1] = system: 786-0
[2] = system: A498
[3] = system: A549
[4] = system: ACHN
[5] = system: CCRF-CEM
[6] = system: COLO 205
[7] = system: DLD-1
[8] = system: DMS-114
[9] = system: DMS-273
[10] = system: EKVX
[11] = system: HCC 2998
[12] = system: HCT-116
[13] = system: HCT-15
[14] = system: HL-60
[15] = system: HOP-18
[16] = system: HOP-62
[17] = system: HOP-92
[18] = system: HT-29
[19] = system: IGROV-1
[20] = system: K562
[21] = system: KM-20L2
[22] = system: LXFL 529
[23] = system: M14
[24] = system: M19-MEL
[25] = system: MOLT-4
[26] = system: Malme-3M
[27] = system: NCI-H226
[28] = system: NCI-H23
[29] = system: NCI-H522
[30] = system: OVCAR-4
[31] = system: OVCAR-8
[32] = system: RPMI-8226
[33] = system: RXF 393
[34] = system: SF-268
[35] = system: SF-295
[36] = system: SF-539
[37] = system: SK-MEL-28
[38] = system: SK-MEL-5
[39] = system: SK-OV-3
[40] = system: SN12C
[41] = system: SNB-19
[42] = system: SNB-75
[43] = system: SNB-78
[44] = system: SR
[45] = system: SW-620
[46] = system: U-251
[47] = system: UACC-257
[48] = system: UACC-62
[49] = system: UO-31
[50] = system: XF498

## O=C1c2ccccc2N2OC3(N4CCOCC4)CCCC3C12c1ccccc1 (stereo not given)
[1]
  GI50: > 100 µM (inactive)
[2]
  GI50: > 100 µM (inactive)
[3]
  GI50: > 100 µM (inactive)
[4]
  GI50: > 100 µM (inactive)
[5]
  GI50: > 100 µM (inactive)
[6]
  GI50: > 100 µM (inactive)
[7]
  GI50: > 100 µM (inactive)
[8]
  GI50: > 100 µM (inactive)
[9]
  GI50: > 100 µM (inactive)
[10]
  GI50: > 100 µM (inactive)
[11]
  GI50: > 100 µM (inactive)
[12]
  GI50: > 100 µM (inactive)
[13]
  GI50: > 100 µM
[14]
  GI50: 77.1 µM (inactive)
[15]
  GI50: > 100 µM (inactive)
[16]
  GI50: > 100 µM (inactive)
[17]
  GI50: 53.3 µM (inactive)
[18]
  GI50: > 100 µM (inactive)
[19]
  GI50: > 100 µM (inactive)
[20]
  GI50: > 100 µM (inactive)
[21]
  GI50: > 100 µM (inactive)
[22]
  GI50: > 100 µM (inactive)
[23]
  GI50: > 100 µM (inactive)
[24]
  GI50: > 100 µM (inactive)
[25]
  GI50: > 100 µM (inactive)
[26]
  GI50: > 100 µM (inactive)
[27]
  GI50: > 100 µM (inactive)
[28]
  GI50: > 100 µM (inactive)
[29]
  GI50: 86.1 µM (inactive)
[30]
  GI50: > 100 µM (inactive)
[31]
  GI50: > 100 µM (inactive)
[32]
  GI50: > 100 µM (inactive)
[33]
  GI50: 49.2 µM (inactive)
[34]
  GI50: > 100 µM (inactive)
[35]
  GI50: > 100 µM (inactive)
[36]
  GI50: > 100 µM (inactive)
[37]
  GI50: > 100 µM (inactive)
[38]
  GI50: > 100 µM (inactive)
[39]
  GI50: > 100 µM (inactive)
[40]
  GI50: > 100 µM (inactive)
[41]
  GI50: > 100 µM (inactive)
[42]
  GI50: > 100 µM (inactive)
[43]
  GI50: > 100 µM (inactive)
[44]
  GI50: > 100 µM (inactive)
[45]
  GI50: > 100 µM (inactive)
[46]
  GI50: > 100 µM (inactive)
[47]
  GI50: > 100 µM (inactive)
[48]
  GI50: 93.1 µM (inactive)
[49]
  GI50: > 100 µM (inactive)
[50]
  GI50: > 100 µM (inactive)
